Results reported in patent US20090023163A1, “Method of Measuring Enzyme Activity and Method of Evaluating Compound” (priority 2005, published 2009).

Key:
Format in all cases: biochemical
[1] = target: T1, hElovl-1 (human elongase of very long chain fatty acids-like 1) (Homo sapiens, UniProt Q9BW60); assay: Measuring activity of hElovl-1 using N-Tag-hACBP (SPA); details: HEK293 microsomal sample of hElovl-1, 40 μM long chain fatty acid CoA, 60 μM malonyl-CoA, 37° C. 2 hours, FIG. 3
T1 construct: implied by vector pCMV-Tag2B, own knowledge) (N); made in house; host or cells: HEK293, microsomal sample
T1 sequence (Q9BW60 1-279): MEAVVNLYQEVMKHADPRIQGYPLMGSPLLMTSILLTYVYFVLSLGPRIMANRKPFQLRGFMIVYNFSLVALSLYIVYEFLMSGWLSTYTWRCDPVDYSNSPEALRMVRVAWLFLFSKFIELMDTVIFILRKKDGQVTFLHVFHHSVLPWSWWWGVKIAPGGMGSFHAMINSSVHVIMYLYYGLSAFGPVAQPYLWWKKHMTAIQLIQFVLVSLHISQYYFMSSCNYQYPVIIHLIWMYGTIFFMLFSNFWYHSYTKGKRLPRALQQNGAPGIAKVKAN
Experimental: (§1) An assay buffer solution (100 mM sodium chloride, 100 mM Tris buffer solution, pH 6.5) containing the cell microsomal sample of hElovl-3 or hElovl-1 obtained by the above-mentioned preparation method, 1 μM rotenone (manufactured by Sigma), 1 mM NADPH (reduced nicotinamide adenine dinucleotide phosphate, manufactured by Sigma), 20 μM fatty acid-free bovine serum albumin (manufactured by Sigma), 40 μM long chain fatty acid CoA (manufactured by Sigma, manufactured by Avanti), and 50,000 dpm of 60 μM malonyl-CoA (manufactured by Sigma, Muromachi Yakuhin Kagaku) was incubated at 37° C. for 2 hours in a 96-well Opti-plate (Packard), and then, 0.25% octyl-beta-glucoside was added thereto to stop the reaction.
(§2) Subsequently, 2 μg of a human acyl-CoA-binding protein tagged with a His tag at the N terminus and 500 μg of SPA resin (PVT copper His-Tag SPA Beads, manufactured by Amersham) were added to the reaction solution, and the resulting mixture was incubated at 37° C. for 30 minutes, followed by centrifugation at 3,000 rpm, and an activity was measured using a Top Count (Packard).
(§3) In order to evaluate a specific activity, an expression vector in which either enzyme was not cloned was transfected into a host cell, HEK293 by the host cationic lipid method, and comparison was carried out with the microsomal sample obtained by a standard method from the expressing cell.

[2] = target: T2, hElovl-3 (human elongase of very long chain fatty acids-like 3) (Homo sapiens, UniProt Q9HB03); assay: Measuring activity of hElovl-3 using N-Tag-hACBP (SPA); details: HEK293 microsomal sample of hElovl-3, 40 μM long chain fatty acid CoA, 60 μM malonyl-CoA, 37° C. 2 hours, FIG. 2
T2 construct: made in house; host or cells: HEK293, microsomal sample
T2 sequence (Q9HB03 1-270): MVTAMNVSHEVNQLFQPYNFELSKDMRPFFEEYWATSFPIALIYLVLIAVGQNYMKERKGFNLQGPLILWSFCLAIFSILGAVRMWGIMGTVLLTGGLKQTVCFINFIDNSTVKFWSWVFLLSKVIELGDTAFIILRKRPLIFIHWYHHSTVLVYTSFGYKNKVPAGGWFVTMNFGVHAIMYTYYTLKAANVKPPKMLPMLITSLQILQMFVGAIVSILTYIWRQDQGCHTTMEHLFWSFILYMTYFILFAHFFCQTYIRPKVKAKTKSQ
Experimental: as §1, §2, §3

[3] = target: T3, hLCE (human long chain fatty acyl elongase) (Homo sapiens, UniProt Q9H5J4); assay: Measuring LCE activity using N-Tag-hACBP (SPA); details: yeast microsomal sample of hLCE, 40 μM long chain fatty acid CoA, 60 μM malonyl-CoA, 37° C. 2 hours, FIG. 1
T3 construct: made in house; host or cells: Pichia pastoris (yeast), microsomal sample
T3 sequence (Q9H5J4 1-265): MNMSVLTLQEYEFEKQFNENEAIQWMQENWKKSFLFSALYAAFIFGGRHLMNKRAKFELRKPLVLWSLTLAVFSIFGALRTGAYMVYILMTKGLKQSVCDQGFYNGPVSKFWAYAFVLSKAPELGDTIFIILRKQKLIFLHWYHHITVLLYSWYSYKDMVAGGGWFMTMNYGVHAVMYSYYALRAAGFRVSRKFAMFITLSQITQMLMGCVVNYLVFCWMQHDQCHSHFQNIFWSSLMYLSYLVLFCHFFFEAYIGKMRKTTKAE
Experimental: as §1, with “above-mentioned yeast” for “cell”, “sample,” for “sample of hElovl-3 or hElovl-1 obtained by the above-mentioned preparation method,”, “Sigma),” for “Sigma, manufactured by Avanti),”
Subsequently, 2 μg of a human acyl-CoA-binding protein tagged with a His tag at the N terminus and 500 μg of SPA resin (PVT copper His-Tag SPA Beads, manufactured by Amersham) were added thereto, and the resulting mixture was incubated at 37° C. for 30 minutes.
The solution after incubation was centrifuged at 3,000 rpm, and an activity was measured using a Top Count (Packard). Here, in order to evaluate a specific activity, an expression vector in which hLCE was not cloned was transfected into a host yeast, Pichia pastris by the electroporation method, whereby a transformed yeast was obtained. […]

Row | SMILES | enhancement of a signal (enzyme activity with the acyl-CoA used as the substrate) [1] | enhancement of a signal (enzyme activity with the acyl-CoA used as the substrate) [2] | enhancement of a signal (enzyme activity with the acyl-CoA used as the substrate) [3]
1 | CCCCCCCCCCCCCCCCCCCC(=O)SCCNC(=O)CCNC(=O)[C@H](O)C(C)(C)COP(=O)(O)OP(=O)(O)OC[C@H]1O[C@@H](n2cnc3c(N)ncnc32)[C@H](O)[C@@H]1OP(=O)(O)O [arachidoyl-CoA] | specific enhancement of a signal was observed | – | –
2 | CCCCCCCCCCCCCCCCCCCCCCCC(=O)SCCNC(=O)CCNC(=O)[C@H](O)C(C)(C)COP(=O)(O)OP(=O)(O)OC[C@H]1O[C@@H](n2cnc3c(N)ncnc32)[C@H](O)[C@@H]1OP(=O)(O)O [lignoceroyl-CoA] | enhancement of a signal was not observed | enhancement of a signal was not observed | –
3 | CCCCCCCCCCCCCCCC(=O)SCCNC(=O)CCNC(=O)[C@H](O)C(C)(C)COP(=O)(O)OP(=O)(O)OC[C@H]1O[C@@H](n2cnc3c(N)ncnc32)[C@H](O)[C@@H]1OP(=O)(O)O [palmitoyl-CoA] | – | – | specific enhancement of a signal was observed
4 | CCCCCCCCCCCCCCCCCC(=O)SCCNC(=O)CCNC(=O)[C@H](O)C(C)(C)COP(=O)(O)OP(=O)(O)OC[C@H]1O[C@@H](n2cnc3c(N)ncnc32)[C@H](O)[C@@H]1OP(=O)(O)O [stearoyl-CoA] | – | specific enhancement of a signal was observed | enhancement of a signal was not observed
